# Measured values: ChEMBL document CHEMBL1255419, “Pharmacokinetic-pharmacodynamic assessment of faropenem in a lethal murine Bacillus anthracis inhalation postexposure prophylaxis model” (Antimicrob Agents Chemother, 2010)
# Active and inactive are the calls of the source. The calls are words filed in the database; no cut-off is given here.
# Experiments:
# Bacillus anthracis [1] = assay: microbe, parasite or virus in culture; assay type: functional
# Bacillus anthracis [2] = assay: microbe, parasite or virus in culture; assay type: functional; remark: listed apart in the source
# Bacillus anthracis [3] = assay: microbe, parasite or virus in culture; assay type: functional; remark: listed apart in the source
# Bacillus anthracis [4] = assay: Antibacterial activity against beta-lactamase Bla1 and Bla2-producing Bacillus anthracis Sterne by broth microdilution method; assay type: functional
# Bacillus anthracis [5] = assay: microbe, parasite or virus in culture; assay type: functional; remark: listed apart in the source
# Bacillus anthracis [6] = assay: microbe, parasite or virus in culture; assay type: functional; remark: listed apart in the source
# Bacillus anthracis [7] = assay: microbe, parasite or virus in culture; assay type: functional; remark: listed apart in the source
# Bacillus anthracis [8] = assay: microbe, parasite or virus in culture; assay type: functional; remark: listed apart in the source
# Bacillus anthracis [9] = assay: microbe, parasite or virus in culture; assay type: functional; remark: listed apart in the source
# Bacillus anthracis [10] = assay: microbe, parasite or virus in culture; assay type: functional; remark: listed apart in the source
# Bacillus anthracis [11] = assay: microbe, parasite or virus in culture; assay type: functional; remark: listed apart in the source
# Bacillus anthracis [12] = assay: microbe, parasite or virus in culture; assay type: functional; remark: listed apart in the source
# Bacillus anthracis [13] = assay: microbe, parasite or virus in culture; assay type: functional; remark: listed apart in the source
# Bacillus anthracis [14] = assay: microbe, parasite or virus in culture; assay type: functional; remark: listed apart in the source
# Bacillus anthracis [15] = assay: microbe, parasite or virus in culture; assay type: functional; remark: listed apart in the source
# Bacillus anthracis [16] = assay: microbe, parasite or virus in culture; assay type: functional; remark: listed apart in the source
# Bacillus anthracis [17] = assay: microbe, parasite or virus in culture; assay type: functional; remark: listed apart in the source
# Bacillus anthracis [18] = assay: microbe, parasite or virus in culture; assay type: functional; remark: listed apart in the source
# Bacillus anthracis [19] = assay: microbe, parasite or virus in culture; assay type: functional; remark: listed apart in the source
# Bacillus anthracis [20] = assay: microbe, parasite or virus in culture; assay type: functional; remark: listed apart in the source
# Bacillus anthracis [21] = assay: microbe, parasite or virus in culture; assay type: functional; remark: listed apart in the source
# Bacillus anthracis [22] = assay: microbe, parasite or virus in culture; assay type: functional; remark: listed apart in the source
# Bacillus anthracis [23] = assay: microbe, parasite or virus in culture; assay type: functional; remark: listed apart in the source
# Bacillus anthracis [24] = assay: microbe, parasite or virus in culture; assay type: functional; remark: listed apart in the source
# Bacillus anthracis [25] = assay: microbe, parasite or virus in culture; assay type: functional; remark: listed apart in the source
# Bacillus anthracis [26] = assay: microbe, parasite or virus in culture; assay type: functional; remark: listed apart in the source
# Bacillus anthracis [27] = assay: microbe, parasite or virus in culture; assay type: functional; remark: listed apart in the source
# Bacillus anthracis [28] = assay: microbe, parasite or virus in culture; assay type: functional; remark: listed apart in the source
# Bacillus anthracis [29] = assay: microbe, parasite or virus in culture; assay type: functional; remark: listed apart in the source
# Bacillus anthracis [30] = conditions: Ames, 30 mg/kg
# Bacillus anthracis [31] = assay: animal or person; conditions: Ames, in Mus musculus, ip
Structure (SMILES),MIC (Bacillus anthracis [1]),MIC (Bacillus anthracis [2]),MIC (Bacillus anthracis [3]),MIC (Bacillus anthracis [4]),MIC (Bacillus anthracis [5]),MIC (Bacillus anthracis [6]),MIC (Bacillus anthracis [7]),MIC (Bacillus anthracis [8]),MIC (Bacillus anthracis [9]),MIC (Bacillus anthracis [10]),MIC (Bacillus anthracis [11]),MIC (Bacillus anthracis [13]),MIC (Bacillus anthracis [14]),MIC (Bacillus anthracis [15]),MIC (Bacillus anthracis [16]),MIC (Bacillus anthracis [17]),MIC (Bacillus anthracis [18]),MIC (Bacillus anthracis [19]),MIC (Bacillus anthracis [20]),MIC (Bacillus anthracis [21]),further results
CC[C@H]1OC(=O)[C@H](C)[C@@H](O[C@H]2C[C@@](C)(OC)[C@@H](O)[C@H](C)O2)[C@H](C)[C@@H](O[C@@H]2O[C@H](C)C[C@H](N(C)C)[C@H]2O)[C@](C)(O)C[C@@H](C)CN(C)[C@H](C)[C@@H](O)[C@]1(C)O [AZITHROMYCIN],2 µg/mL,2 µg/mL,2 µg/mL,2 µg/mL,4 µg/mL,1 µg/mL,2 µg/mL,2 µg/mL,2 µg/mL,4 µg/mL,4 µg/mL,4 µg/mL,4 µg/mL,4 µg/mL,4 µg/mL,4 µg/mL,4 µg/mL,4 µg/mL,4 µg/mL,4 µg/mL,MIC (Bacillus anthracis [12]): 4 µg/mL; MIC (Bacillus anthracis [22]): 4 µg/mL; MIC (Bacillus anthracis [23]): 4 µg/mL; MIC (Bacillus anthracis [24]): 4 µg/mL; MIC (Bacillus anthracis [25]): 4 µg/mL; MIC (Bacillus anthracis [26]): 4 µg/mL; MIC (Bacillus anthracis [27]): 2 µg/mL; MIC (Bacillus anthracis [28]): 2 µg/mL; MIC (Bacillus anthracis [29]): 4 µg/mL
O=C(O)c1cn(C2CC2)c2cc(N3CCNCC3)c(F)cc2c1=O [CIPROFLOXACIN],≤ 0.06 µg/mL,≤ 0.06 µg/mL,0.12 µg/mL,≤ 0.06 µg/mL,≤ 0.06 µg/mL,0.25 µg/mL,≤ 0.06 µg/mL,≤ 0.06 µg/mL,≤ 0.06 µg/mL,0.25 µg/mL,0.12 µg/mL,0.12 µg/mL,0.12 µg/mL,≤ 0.06 µg/mL,≤ 0.06 µg/mL,0.12 µg/mL,0.12 µg/mL,0.12 µg/mL,≤ 0.06 µg/mL,≤ 0.06 µg/mL,MIC (Bacillus anthracis [22]): 0.12 µg/mL; MIC (Bacillus anthracis [23]): ≤ 0.06 µg/mL; MIC (Bacillus anthracis [24]): 0.25 µg/mL; MIC (Bacillus anthracis [25]): 1 µg/mL; MIC (Bacillus anthracis [26]): ≤ 0.06 µg/mL; MIC (Bacillus anthracis [27]): ≤ 0.06 µg/mL; MIC (Bacillus anthracis [28]): 0.12 µg/mL; MIC (Bacillus anthracis [29]): ≤ 0.06 µg/mL; inhibition (Bacillus anthracis [30]): Active; survival at 60 mg/kg (Bacillus anthracis [31]): 90%
C[C@H]1c2cccc(O)c2C(=O)C2=C(O)[C@]3(O)C(=O)C(C(N)=O)=C(O)[C@@H](N(C)C)[C@@H]3[C@@H](O)[C@@H]21.O [DOXYCYCLINE],≤ 0.06 µg/mL,≤ 0.06 µg/mL,≤ 0.06 µg/mL,≤ 0.06 µg/mL,≤ 0.06 µg/mL,≤ 0.06 µg/mL,≤ 0.06 µg/mL,≤ 0.06 µg/mL,≤ 0.06 µg/mL,0.25 µg/mL,≤ 0.06 µg/mL,≤ 0.06 µg/mL,≤ 0.06 µg/mL,≤ 0.06 µg/mL,≤ 0.06 µg/mL,≤ 0.06 µg/mL,≤ 0.06 µg/mL,≤ 0.06 µg/mL,≤ 0.06 µg/mL,≤ 0.06 µg/mL,MIC (Bacillus anthracis [12]): ≤ 0.06 µg/mL; MIC (Bacillus anthracis [22]): ≤ 0.06 µg/mL; MIC (Bacillus anthracis [23]): ≤ 0.06 µg/mL; MIC (Bacillus anthracis [24]): ≤ 0.06 µg/mL; MIC (Bacillus anthracis [25]): ≤ 0.06 µg/mL; MIC (Bacillus anthracis [26]): ≤ 0.06 µg/mL; MIC (Bacillus anthracis [27]): ≤ 0.06 µg/mL; MIC (Bacillus anthracis [28]): ≤ 0.06 µg/mL; MIC (Bacillus anthracis [29]): ≤ 0.06 µg/mL
